Results: PubChem BioAssay (NCI)
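Compound exposure: 48 hours, 5 concentrations, 96-well plates. GI50 = concentration required for 50% inhibition of growth. TGI denotes the concentration required for complete inhibition of growth.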

How the values were obtained:
Experiment in all cases: growth of human tumour cells (NCI), 48 h
786-0 renal = test system: 786-0 renal
A498 renal = test system: A498 renal
A549 NSCLC = test system: A549 NSCLC
ACHN renal = test system: ACHN renal
BT-549 breast = test system: BT-549 breast
CAKI-1 renal = test system: CAKI-1 renal
CCRF-CEM leukemia = test system: CCRF-CEM leukemia
COLO 205 colon = test system: COLO 205 colon
DU-145 prostate = test system: DU-145 prostate
EKVX NSCLC = test system: EKVX NSCLC
HCC-2998 colon = test system: HCC-2998 colon
HCT-116 colon = test system: HCT-116 colon
HCT-15 colon = test system: HCT-15 colon
HL-60(TB) leukemia = test system: HL-60(TB) leukemia
HOP-62 NSCLC = test system: HOP-62 NSCLC
HOP-92 NSCLC = test system: HOP-92 NSCLC
HS 578T breast = test system: HS 578T breast
HT29 colon = test system: HT29 colon
IGROV1 ovarian = test system: IGROV1 ovarian
K-562 leukemia = test system: K-562 leukemia
KM12 colon = test system: KM12 colon
LOX IMVI melanoma = test system: LOX IMVI melanoma
M14 melanoma = test system: M14 melanoma
MALME-3M melanoma = test system: MALME-3M melanoma
MCF7 breast = test system: MCF7 breast
MDA-MB-435 = test system: MDA-MB-435
MDA-MB-468 breast = test system: MDA-MB-468 breast
MOLT-4 leukemia = test system: MOLT-4 leukemia

O=C(c1ccccc1)n1ccc(-c2cc3cc(Br)ccc3oc2=O)n1
GI50 (786-0 renal): 3.99 µM | TGI (786-0 renal): > 100 µM | GI50 (A498 renal): > 100 µM | TGI (A498 renal): > 100 µM | GI50 (A549 NSCLC): 12.6 µM | TGI (A549 NSCLC): > 100 µM | GI50 (ACHN renal): 3.94 µM | TGI (ACHN renal): > 100 µM | GI50 (BT-549 breast): 5.18 µM | TGI (BT-549 breast): 78 µM | GI50 (CAKI-1 renal): 4.16 µM | TGI (CAKI-1 renal): > 100 µM | GI50 (CCRF-CEM leukemia): 1.52 µM | TGI (CCRF-CEM leukemia): 15.6 µM | GI50 (COLO 205 colon): 19.1 µM | TGI (COLO 205 colon): 73.6 µM | GI50 (DU-145 prostate): 8.9 µM | TGI (DU-145 prostate): > 100 µM | GI50 (EKVX NSCLC): 2.7 µM | TGI (EKVX NSCLC): > 100 µM | GI50 (HCC-2998 colon): 5.29 µM | TGI (HCC-2998 colon): > 100 µM | GI50 (HCT-116 colon): 3.52 µM | TGI (HCT-116 colon): > 100 µM | GI50 (HCT-15 colon): 2.88 µM | TGI (HCT-15 colon): > 100 µM | GI50 (HL-60(TB) leukemia): 2.09 µM | TGI (HL-60(TB) leukemia): 5.49 µM | GI50 (HOP-62 NSCLC): 3.48 µM | TGI (HOP-62 NSCLC): > 100 µM | GI50 (HOP-92 NSCLC): 0.545 µM | TGI (HOP-92 NSCLC): > 100 µM | GI50 (HS 578T breast): 17.5 µM | TGI (HS 578T breast): > 100 µM | GI50 (HT29 colon): 16.5 µM | TGI (HT29 colon): > 100 µM | GI50 (IGROV1 ovarian): 5.48 µM | TGI (IGROV1 ovarian): > 100 µM | GI50 (K-562 leukemia): 3.59 µM | TGI (K-562 leukemia): > 100 µM | GI50 (KM12 colon): 4.45 µM | TGI (KM12 colon): > 100 µM | GI50 (LOX IMVI melanoma): 2.8 µM | TGI (LOX IMVI melanoma): 90.9 µM | GI50 (M14 melanoma): 3.94 µM | TGI (M14 melanoma): 24 µM | GI50 (MALME-3M melanoma): 5.9 µM | TGI (MALME-3M melanoma): > 100 µM | GI50 (MCF7 breast): 2.74 µM | TGI (MCF7 breast): > 100 µM | GI50 (MDA-MB-435): 14.7 µM | TGI (MDA-MB-435): > 100 µM | GI50 (MDA-MB-468 breast): 3.6 µM | TGI (MDA-MB-468 breast): 25.2 µM | GI50 (MOLT-4 leukemia): 3.32 µM | TGI (MOLT-4 leukemia): 9.55 µM
